Data as given in ChEMBL document CHEMBL1201862, “PubChem BioAssay data set” (2004).
Activity calls are given as the source filed them.

Experiments:
[1] = Vero E6 cell cytotoxicity, dose response, cytotoxicity control for non-replicating M. tuberculosis project, secondary assay (AID 492998); type: functional, VeroE6; conditions: Vero C1008
cells [2] = type: functional
[3] = THP-1 cell cytotoxicity, dose response, cytotoxicity control for non-replicating M. tuberculosis project (AID 489025); type: functional
HEK293 = assay: EBV LMP1 TES2 canonical NF-kB signalling blockers – cell-based, HEK293, luciferase, cherry-pick, dose response (AID 588343); type: functional; conditions: Homo sapiens
[4] = microbe, parasite or virus in culture; type: functional; conditions: Mycobacterium tuberculosis
[5] = molecular target: T1, Voltage-gated N-type calcium channel alpha-1B subunit/Amyloid beta A4 precursor protein-binding family A member 1 (Homo sapiens, UniProt Q00975+Q02410); type: protein assay
[6] = molecular target: T1, Voltage-gated N-type calcium channel alpha-1B subunit/Amyloid beta A4 precursor protein-binding family A member 1; type: protein assay; remark: listed apart in the source
[7] = molecular target: Glyceraldehyde-3-phosphate dehydrogenase (Homo sapiens, UniProt P04406)
[8] = molecular target: Alkaline phosphatase, placental type (Homo sapiens, UniProt P05187); assay: human placental alkaline phosphatase inhibition – biochemical, luminescence, confirmation (AID 1512); type: functional
[9] = molecular target: T2, Alkaline phosphatase, tissue-nonspecific isozyme (Homo sapiens, UniProt P05186); assay: potency against alkaline phosphatase TNAP – biochemical, luminescent, dose response, SAR follow-up (AID 1056)
T2 sequence (P05186 whole entry): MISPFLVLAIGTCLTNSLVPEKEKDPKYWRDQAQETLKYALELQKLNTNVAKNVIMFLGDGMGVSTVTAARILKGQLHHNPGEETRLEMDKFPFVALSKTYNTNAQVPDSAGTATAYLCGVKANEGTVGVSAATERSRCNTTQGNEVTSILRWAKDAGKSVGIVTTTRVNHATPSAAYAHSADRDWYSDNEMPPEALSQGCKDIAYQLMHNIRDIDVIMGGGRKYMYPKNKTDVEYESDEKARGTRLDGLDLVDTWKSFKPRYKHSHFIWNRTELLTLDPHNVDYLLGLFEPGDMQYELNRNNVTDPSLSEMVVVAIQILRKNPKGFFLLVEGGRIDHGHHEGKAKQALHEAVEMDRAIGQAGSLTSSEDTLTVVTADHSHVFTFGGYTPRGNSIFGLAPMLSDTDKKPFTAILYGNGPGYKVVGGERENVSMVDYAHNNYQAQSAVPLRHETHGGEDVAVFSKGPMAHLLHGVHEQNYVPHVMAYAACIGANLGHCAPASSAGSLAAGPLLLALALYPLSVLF

[10] = fluconazole-exposed Candida albicans growth modulators – fluorescence, retest, confirmation (AID 2467); type: functional, cell-based
[11] = molecular target: ATP-dependent molecular chaperone HSP82 (Candida albicans (strain WO-1) (Yeast), UniProt C4YTQ8); assay: steroid-induced GRE reporter decrease in yeast – S. cerevisiae, luminescence, Hsp90 inhibitor project, dose response (AID 2400); type: functional, cell-based;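 further: beta-galactosidase luminescence from glucocorticoid response element reporter as proxy for Hsp90 function; inhibitor potency where signal loss means Hsp90 inhibition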
cells [12] = type: functional, cell-based
[13] = NIH-3T3 fibroblast cytotoxicity, dose response, cytotoxicity control, cell-based, fluorescence, Alamar Blue, secondary assay (AID 2327); type: functional;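 further: NIH-3T3 mouse fibroblasts cultured with fluconazole at 8 µg/mL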
cells [14] = type: functional, cell-based; remark: listed apart in the source
INS1 = assay: INS-1E survival protection against cytokine death – cell-based, luminescence, retest, dose response (AID 449756); type: functional; conditions: Rattus norvegicus;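 further: cell death triggered by IL-1 beta plus TNF-alpha plus IFN-gamma mixture; protective hits raise ATP signal compared with cytokine alone wells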
[15] = molecular target: T3, Serine/threonine-protein phosphatase (Candida dubliniensis (strain CD36 / CBS 7987 / NCPF 3949 / NRRLY-17841) (Yeast), UniProt B9W6M3); assay: blockers of CaCl2-induced CDRE-lacZ signaling – S. cerevisiae, luminescence, secondary, dose response (AID 2388); type: functional, cell-based;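 further: yeast reporter cells carrying a calcineurin-responsive lacZ construct stimulated with calcium chloride; luminescent beta-galactosidase reporter signal in whole cells rather than isolated phosphatase activity; potency for inhibition where a drop in reporter signal means calcineurin blockade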
T3 sequence (B9W6M3 whole entry): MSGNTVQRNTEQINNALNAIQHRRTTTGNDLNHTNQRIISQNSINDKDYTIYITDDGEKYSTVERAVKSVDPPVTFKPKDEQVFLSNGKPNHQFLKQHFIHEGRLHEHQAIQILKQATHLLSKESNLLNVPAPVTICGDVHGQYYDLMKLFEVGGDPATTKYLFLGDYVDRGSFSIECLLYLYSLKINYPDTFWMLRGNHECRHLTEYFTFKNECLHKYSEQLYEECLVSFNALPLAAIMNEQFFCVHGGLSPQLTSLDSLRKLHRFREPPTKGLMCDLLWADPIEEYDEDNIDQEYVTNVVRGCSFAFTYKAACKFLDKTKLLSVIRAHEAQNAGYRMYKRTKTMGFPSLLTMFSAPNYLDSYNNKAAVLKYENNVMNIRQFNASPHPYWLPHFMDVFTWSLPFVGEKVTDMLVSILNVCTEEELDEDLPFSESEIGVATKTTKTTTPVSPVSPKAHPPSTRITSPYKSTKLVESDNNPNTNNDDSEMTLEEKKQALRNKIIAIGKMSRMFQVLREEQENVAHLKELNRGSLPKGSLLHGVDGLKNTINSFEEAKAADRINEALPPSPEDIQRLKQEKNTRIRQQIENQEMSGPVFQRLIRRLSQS

[16] = HepG2 cell cytotoxicity, dose response, cytotoxicity control for non-replicating M. tuberculosis project (AID 489018); type: functional; conditions: Mycobacterium tuberculosis
[17] = molecular target: T4, Heat shock factor protein 1 (Mus musculus, UniProt P38532); assay: enhancement of HSF1-driven luciferase signal – cell-based, NIH3T3, luminescence, dose retest, confirmation (AID 435004); type: functional;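 further: stress induced by proteasome inhibitor MG132 added 30 min after compound; luciferase reporter driven by HSF1 response element in NIH3T3 cells; actives raise luminescence as potentiators of the MG132 stress response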
T4 sequence (P38532 whole entry): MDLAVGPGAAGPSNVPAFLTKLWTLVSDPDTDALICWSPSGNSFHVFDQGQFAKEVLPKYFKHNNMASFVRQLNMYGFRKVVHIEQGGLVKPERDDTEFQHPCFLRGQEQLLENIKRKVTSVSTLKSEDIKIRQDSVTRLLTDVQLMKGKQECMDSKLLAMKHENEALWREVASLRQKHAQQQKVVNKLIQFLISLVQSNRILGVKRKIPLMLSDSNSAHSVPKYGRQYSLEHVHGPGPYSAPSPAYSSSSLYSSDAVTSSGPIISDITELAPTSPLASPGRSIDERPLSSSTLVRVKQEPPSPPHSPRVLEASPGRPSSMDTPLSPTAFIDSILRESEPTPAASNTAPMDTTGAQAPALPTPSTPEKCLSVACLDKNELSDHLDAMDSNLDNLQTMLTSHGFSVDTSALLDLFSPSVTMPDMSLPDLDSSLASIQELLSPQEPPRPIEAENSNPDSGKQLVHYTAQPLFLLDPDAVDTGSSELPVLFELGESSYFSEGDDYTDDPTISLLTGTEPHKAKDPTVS

[18] = molecular target: DNA damage-inducible transcript 3 protein (Mus musculus, UniProt P35639); type: functional, Cricetulus griseus
Melanocortin receptor 4 = Melanocortin receptor 4 (Homo sapiens, UniProt P32245); type: functional, cell-based;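 further: Cell-based assay with luminescence read-out, confirmatory dose-response testing for agonist activity of biased ligands at MC4R; human U2OS cells with tagged receptor and beta-arrestin; potency of agonists that increase receptor coupling to beta-arrestin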
[19] = viability of uninfected HEp-2 cells – cell-based, HTS, cytotoxicity control for RSV inhibitor project, dose response (AID 2410); type: functional; conditions: human respiratory syncytial virus
BJ [20] = assay: BJ-TERT-LT-ST fibroblast viability loss – cell-based, RAS-independent, luminescence, dose response (AID 1935); type: functional; conditions: Homo sapiens;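 further: BJ fibroblasts immortalized with TERT plus LT and ST oncogenes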
BJ [21] = assay: BJ-TERT fibroblast viability loss – cell-based, RAS-independent, luminescence, dose response (AID 1933); type: functional; conditions: Homo sapiens
[22] = NIH3T3 cell viability loss – ATP luminescence, mouse fibroblasts, counter-screen, dose response (AID 2010); type: functional, cell-based;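 further: cells exposed to compound for about 90 hours before reading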
[23] = molecular target: T5, Type-1 angiotensin II receptor (Homo sapiens, UniProt P30556); assay: agonist activity at AGTR1 – cell-based, uHTS hits, selectivity assay for APJ receptor agonist project, dose response (AID 488865); type: functional;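 further: beta-arrestin recruitment to AT1 measured by enzyme fragment complementation luminescence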
T5 sequence (P30556 whole entry): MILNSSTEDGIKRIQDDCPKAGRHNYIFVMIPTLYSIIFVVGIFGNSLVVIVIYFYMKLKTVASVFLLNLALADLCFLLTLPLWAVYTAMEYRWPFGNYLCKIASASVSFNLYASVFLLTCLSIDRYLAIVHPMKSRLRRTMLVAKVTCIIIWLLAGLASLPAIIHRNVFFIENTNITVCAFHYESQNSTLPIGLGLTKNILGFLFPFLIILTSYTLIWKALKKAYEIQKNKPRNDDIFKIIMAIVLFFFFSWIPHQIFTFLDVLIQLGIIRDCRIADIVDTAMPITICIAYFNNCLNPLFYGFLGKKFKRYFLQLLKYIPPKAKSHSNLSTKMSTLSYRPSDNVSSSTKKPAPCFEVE

[24] = Trypanosoma cruzi growth suppression in host cells – NIH3T3 host cells, beta-gal luminescence, confirmation (AID 2044); type: functional, cell-based;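 further: intracellular parasites grown in NIH/3T3 mouse fibroblasts as host cells; luminescent beta-galactosidase reporter signal from transgenic T. cruzi replicating inside host cells; inhibitors lower the luminescence signal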
BJ [25] = assay: cells; type: functional, cell-based; conditions: Homo sapiens
cells [26] = assay: cells
[27] = DRD fibroblast viability loss – cell-based, non-viral oncogenic, luminescence, dose response (AID 1934); type: functional; conditions: Homo sapiens
[28] = molecular target: T6, Ubiquitin-conjugating enzyme E2 N (Homo sapiens, UniProt P61088); type: functional;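 further: Dose-response confirmation in a TR-FRET assay detecting UBC13-driven polyubiquitin chain formation, inhibition measured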
T6 sequence (P61088 whole entry): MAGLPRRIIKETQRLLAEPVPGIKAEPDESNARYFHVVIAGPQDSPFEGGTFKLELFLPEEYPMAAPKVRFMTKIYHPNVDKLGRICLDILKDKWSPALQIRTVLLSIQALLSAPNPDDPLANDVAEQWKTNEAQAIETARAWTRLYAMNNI

Coagulation factor XII = molecular target: T7, Coagulation factor XII (Homo sapiens, UniProt P00748); type: functional;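 further: activated factor XIIa alpha cleaving a fluorogenic AMC peptide substrate; inhibitor potency from loss of enzyme activity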
T7 sequence (P00748 whole entry): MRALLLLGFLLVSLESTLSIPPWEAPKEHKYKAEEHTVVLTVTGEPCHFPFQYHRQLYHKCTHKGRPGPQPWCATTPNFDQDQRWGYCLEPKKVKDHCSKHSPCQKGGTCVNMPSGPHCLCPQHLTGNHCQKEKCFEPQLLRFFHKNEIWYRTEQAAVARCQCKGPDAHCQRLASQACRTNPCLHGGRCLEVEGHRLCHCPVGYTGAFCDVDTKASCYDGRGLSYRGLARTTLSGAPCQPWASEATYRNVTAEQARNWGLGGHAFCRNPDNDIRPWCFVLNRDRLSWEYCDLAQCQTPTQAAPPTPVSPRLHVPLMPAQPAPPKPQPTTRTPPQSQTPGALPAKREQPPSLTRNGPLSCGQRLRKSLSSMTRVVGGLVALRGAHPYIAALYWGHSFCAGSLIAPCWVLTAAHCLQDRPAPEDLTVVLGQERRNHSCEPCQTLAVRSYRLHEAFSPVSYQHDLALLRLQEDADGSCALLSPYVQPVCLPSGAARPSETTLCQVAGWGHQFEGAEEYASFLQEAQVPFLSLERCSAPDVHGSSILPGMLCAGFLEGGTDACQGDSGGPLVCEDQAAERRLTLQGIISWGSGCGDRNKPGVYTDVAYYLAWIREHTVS

[29] = Luminescence Cell-Based Dose Retest to Confirm Inhibitors of Cancer Stem Cells. [Related pubchem assays (depositor defined):AID2717, AID2721]; type: functional; conditions: Homo sapiens

T1 sequence (Q00975 whole entry): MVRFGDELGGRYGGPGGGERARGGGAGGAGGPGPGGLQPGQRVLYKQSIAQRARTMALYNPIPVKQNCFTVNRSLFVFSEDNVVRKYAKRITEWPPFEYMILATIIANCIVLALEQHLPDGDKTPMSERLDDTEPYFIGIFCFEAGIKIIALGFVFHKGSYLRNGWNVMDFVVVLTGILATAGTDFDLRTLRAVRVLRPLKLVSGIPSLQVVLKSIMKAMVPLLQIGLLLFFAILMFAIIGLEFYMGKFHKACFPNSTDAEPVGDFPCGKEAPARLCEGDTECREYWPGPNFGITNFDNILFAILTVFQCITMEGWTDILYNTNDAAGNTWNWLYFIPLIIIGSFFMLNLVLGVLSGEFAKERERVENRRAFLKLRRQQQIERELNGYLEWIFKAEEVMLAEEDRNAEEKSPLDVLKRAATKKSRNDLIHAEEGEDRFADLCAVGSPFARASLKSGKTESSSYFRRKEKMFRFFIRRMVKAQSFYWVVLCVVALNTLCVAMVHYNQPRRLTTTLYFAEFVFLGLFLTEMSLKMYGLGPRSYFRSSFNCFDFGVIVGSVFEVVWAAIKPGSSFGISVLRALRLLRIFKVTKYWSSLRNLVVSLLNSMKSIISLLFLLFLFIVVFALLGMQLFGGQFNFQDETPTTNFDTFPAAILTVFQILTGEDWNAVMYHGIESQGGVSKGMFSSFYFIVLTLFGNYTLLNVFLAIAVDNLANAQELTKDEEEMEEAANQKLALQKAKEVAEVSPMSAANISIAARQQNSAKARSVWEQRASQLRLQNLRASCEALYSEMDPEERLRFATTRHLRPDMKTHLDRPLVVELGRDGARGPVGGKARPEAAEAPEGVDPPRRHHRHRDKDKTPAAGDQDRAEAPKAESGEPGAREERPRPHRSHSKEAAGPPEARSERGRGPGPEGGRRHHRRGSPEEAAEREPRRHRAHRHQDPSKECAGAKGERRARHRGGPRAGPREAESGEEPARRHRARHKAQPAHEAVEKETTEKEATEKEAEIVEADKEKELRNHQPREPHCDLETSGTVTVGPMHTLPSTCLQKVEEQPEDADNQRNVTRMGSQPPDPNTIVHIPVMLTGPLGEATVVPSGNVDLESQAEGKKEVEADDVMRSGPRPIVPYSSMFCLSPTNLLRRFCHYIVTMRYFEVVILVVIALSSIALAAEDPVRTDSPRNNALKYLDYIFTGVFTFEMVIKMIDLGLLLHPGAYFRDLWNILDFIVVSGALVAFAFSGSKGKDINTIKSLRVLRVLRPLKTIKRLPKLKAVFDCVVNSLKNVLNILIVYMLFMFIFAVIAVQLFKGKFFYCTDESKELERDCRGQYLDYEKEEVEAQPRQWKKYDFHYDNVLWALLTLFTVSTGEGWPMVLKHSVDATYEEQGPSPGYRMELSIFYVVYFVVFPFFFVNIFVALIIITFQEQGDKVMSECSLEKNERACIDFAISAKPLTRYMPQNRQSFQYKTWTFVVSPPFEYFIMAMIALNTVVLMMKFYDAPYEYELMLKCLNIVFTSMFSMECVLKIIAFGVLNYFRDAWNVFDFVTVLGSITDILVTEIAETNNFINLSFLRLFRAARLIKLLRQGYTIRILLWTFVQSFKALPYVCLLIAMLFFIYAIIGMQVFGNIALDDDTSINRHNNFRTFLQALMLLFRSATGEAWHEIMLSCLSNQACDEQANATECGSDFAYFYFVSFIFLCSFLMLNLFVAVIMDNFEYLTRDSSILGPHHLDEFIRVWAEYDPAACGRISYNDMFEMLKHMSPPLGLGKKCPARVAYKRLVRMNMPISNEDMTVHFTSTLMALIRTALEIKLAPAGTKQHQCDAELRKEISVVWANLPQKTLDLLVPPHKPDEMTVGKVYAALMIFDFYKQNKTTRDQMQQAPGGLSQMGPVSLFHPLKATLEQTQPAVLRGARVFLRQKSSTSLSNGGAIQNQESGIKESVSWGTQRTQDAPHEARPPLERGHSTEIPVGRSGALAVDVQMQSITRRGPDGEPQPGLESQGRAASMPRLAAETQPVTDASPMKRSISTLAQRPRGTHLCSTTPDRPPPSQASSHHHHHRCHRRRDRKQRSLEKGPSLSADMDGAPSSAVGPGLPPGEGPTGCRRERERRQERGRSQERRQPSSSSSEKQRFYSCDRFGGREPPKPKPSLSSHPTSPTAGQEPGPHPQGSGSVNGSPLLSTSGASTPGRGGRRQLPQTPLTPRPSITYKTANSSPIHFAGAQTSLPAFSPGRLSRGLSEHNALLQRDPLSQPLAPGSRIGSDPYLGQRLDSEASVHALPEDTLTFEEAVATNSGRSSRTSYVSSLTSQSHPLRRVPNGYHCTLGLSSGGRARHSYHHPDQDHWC
T1 sequence (Q02410 whole entry): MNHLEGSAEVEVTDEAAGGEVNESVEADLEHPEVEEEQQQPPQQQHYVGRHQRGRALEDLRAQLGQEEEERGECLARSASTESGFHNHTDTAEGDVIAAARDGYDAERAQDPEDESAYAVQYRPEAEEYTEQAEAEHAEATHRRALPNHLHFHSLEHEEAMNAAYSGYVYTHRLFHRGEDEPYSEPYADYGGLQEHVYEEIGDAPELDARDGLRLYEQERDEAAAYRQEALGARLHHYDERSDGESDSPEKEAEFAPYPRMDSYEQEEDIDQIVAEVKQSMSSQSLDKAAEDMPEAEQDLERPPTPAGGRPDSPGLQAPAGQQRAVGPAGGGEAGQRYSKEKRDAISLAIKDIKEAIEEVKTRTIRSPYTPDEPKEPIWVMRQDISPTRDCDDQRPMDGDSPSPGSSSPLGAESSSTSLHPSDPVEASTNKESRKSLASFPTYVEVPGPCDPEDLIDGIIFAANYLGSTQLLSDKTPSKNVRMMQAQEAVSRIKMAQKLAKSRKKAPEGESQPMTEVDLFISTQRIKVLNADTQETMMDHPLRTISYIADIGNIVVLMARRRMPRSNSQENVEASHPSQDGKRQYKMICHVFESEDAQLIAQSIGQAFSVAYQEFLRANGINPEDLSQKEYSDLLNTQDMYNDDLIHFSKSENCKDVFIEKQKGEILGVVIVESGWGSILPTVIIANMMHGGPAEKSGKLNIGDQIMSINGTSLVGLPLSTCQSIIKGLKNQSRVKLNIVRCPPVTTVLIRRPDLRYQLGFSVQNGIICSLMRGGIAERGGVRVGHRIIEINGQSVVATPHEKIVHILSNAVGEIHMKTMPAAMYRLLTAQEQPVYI
Sequence of DNA damage-inducible transcript 3 protein (P35639 whole entry): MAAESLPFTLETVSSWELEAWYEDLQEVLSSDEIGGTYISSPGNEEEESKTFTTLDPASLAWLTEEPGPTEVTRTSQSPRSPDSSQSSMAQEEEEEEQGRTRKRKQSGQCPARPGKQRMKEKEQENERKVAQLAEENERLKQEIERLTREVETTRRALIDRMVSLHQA
Sequence of Alkaline phosphatase, placental type (P05187 whole entry): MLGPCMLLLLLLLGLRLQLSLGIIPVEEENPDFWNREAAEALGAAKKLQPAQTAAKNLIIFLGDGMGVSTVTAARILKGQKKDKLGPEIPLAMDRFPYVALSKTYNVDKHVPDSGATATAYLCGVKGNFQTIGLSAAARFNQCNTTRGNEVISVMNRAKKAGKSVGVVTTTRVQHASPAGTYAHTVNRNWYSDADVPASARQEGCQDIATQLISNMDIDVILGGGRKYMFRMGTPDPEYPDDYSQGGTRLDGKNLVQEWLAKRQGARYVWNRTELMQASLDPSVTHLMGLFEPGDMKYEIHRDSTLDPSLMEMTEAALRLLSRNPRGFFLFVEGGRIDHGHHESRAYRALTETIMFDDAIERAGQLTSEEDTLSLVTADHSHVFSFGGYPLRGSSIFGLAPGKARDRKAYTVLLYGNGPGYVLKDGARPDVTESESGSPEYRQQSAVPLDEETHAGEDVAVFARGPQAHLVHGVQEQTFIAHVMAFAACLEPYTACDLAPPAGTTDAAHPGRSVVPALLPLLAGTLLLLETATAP
Sequence of Glyceraldehyde-3-phosphate dehydrogenase (P04406 whole entry): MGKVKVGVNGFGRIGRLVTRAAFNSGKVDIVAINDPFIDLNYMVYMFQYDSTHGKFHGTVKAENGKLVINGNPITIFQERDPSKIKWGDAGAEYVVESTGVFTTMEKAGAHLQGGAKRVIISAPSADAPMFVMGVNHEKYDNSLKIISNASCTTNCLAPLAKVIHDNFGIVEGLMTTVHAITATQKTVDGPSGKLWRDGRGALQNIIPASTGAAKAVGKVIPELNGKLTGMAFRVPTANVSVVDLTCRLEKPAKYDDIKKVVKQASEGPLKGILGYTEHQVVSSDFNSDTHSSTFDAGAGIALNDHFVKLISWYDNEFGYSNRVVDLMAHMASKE
Sequence of ATP-dependent molecular chaperone HSP82 (C4YTQ8 whole entry): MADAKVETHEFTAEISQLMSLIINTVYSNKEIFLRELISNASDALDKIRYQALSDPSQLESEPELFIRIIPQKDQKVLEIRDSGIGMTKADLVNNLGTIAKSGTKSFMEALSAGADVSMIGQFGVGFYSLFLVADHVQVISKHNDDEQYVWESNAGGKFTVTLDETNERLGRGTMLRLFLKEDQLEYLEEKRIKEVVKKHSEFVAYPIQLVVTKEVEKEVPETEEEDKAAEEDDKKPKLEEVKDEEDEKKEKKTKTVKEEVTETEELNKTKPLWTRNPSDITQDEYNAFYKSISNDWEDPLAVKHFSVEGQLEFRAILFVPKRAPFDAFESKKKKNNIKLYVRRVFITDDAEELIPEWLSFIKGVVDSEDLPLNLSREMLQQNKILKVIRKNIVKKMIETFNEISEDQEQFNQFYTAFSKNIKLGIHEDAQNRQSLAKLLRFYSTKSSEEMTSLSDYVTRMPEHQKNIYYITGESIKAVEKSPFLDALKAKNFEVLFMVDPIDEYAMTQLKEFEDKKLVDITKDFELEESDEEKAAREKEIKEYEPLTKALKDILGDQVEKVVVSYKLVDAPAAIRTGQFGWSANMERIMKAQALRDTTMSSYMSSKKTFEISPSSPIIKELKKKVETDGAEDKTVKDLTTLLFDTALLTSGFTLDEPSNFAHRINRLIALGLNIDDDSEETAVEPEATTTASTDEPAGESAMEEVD

In the case of `S=C1SCN(Cc2ccco2)CN1Cc1ccco1`, the CC50 [1] is reported as 18.4 µM (active), the IC50 (cells [2]) is reported as 22.4 µM (active) and the CC50 [3] is reported as 8.73 µM (active). The AC50 (HEK293) was 574 nM (active) and the CC50 [4] was 16.8 µM (active).
With `COc1cccc2cc(C(=O)Nc3ccc(S(=O)(=O)NCC4CCCO4)cc3)c(=O)oc12` (stereo not drawn) the IC50 [5] was > 50 µM (inactive) and the IC50 [6] was > 56.8 µM (not active).
For `COc1ccccc1-c1nnc(SCC(=O)Nc2ccc(C)c(C)c2)[nH]1`, the IC50 [7] was > 100 µM (not active), the IC50 [8] was > 100 µM (inactive) and the IC50 [9] was > 100 µM (inactive).
In the case of `O=C(N/N=C/c1ccccc1O)c1cccc(C(F)(F)F)c1`, the EC50 [10] is reported as 1.39 µM (active), the EC50 [11] is reported as > 150 µM (inactive) and the EC50 (cells [12]) is reported as > 350 µM (not active). The CC50 [1] was 3.65 µM (active), the EC50 [13] was > 150 µM (inactive) and the CC50 [3] was 0.106 µM (active). The EC50 (cells [14]) was 7.53 µM (active), the AC50 (INS1) was 1.11 µM (active) and the EC50 [15] was > 180 µM (inactive). The CC50 [16] was 6.7 µM (active).
For `O=C1NC(=O)N(c2ccccc2)C(=O)/C1=C/c1ccc(Sc2ccccc2)o1`, the IC50 [5] was 34.4 µM (active) and the IC50 [6] was 35.9 µM (active).
With `C=CCn1c(CCNC(=O)c2ccc(Cl)c(Cl)c2)nnc1SCCOc1ccc(OC)cc1` the EC50 [17] was 16.8 µM (active) and the “Absolute IC50 (CHOP)” value [18] was 10 µM.
With `CN(C)CCCN(C(=O)c1cc2cc([N+](=O)[O-])ccc2s1)c1nc2cc3c(cc2s1)OCCO3` the EC50 (Melanocortin receptor 4) was > 89.2 µM (inactive), the CC50 [19] was 24.5 µM (active) and the EC50 (BJ [20]) was 2.89 µM (inconclusive). The EC50 (BJ [21]) was 1.65 µM (active), the EC50 [22] was 6.94 µM (active) and the EC50 [23] was > 100 µM (inactive). The EC50 [24] was < 100 nM (active), the EC50 (BJ [25]) was 7.44 µM (active) and the EC50 (cells [26]) was 148 nM (active). The EC50 [27] was 2.96 µM (inconclusive).
For `COc1ccc2nc(O)c(C(c3nnnn3CC3CCCO3)N3CCc4ccccc4C3)cc2c1` (stereo not drawn), the EC50 [23] was > 100 µM (inactive).
In the case of `COc1ccc(OCC(=O)NNC(=O)c2ccccn2)cc1`, the IC50 [8] is reported as > 100 µM (inactive), the IC50 [28] is reported as > 20 µM (inactive) and the IC50 (cells [2]) is reported as 9.61 µM (active).
With `O=C1CC(N2CCN(Cc3ccc(Cl)cc3)CC2)C(=O)N1CCc1ccccc1` (stereo not drawn) the IC50 (Coagulation factor XII) was > 50 µM (inactive).
In the case of `CCC(CC)c1nnc(NC(=O)c2c(C)nn(Cc3ccccc3Cl)c2C)s1`, the “Absolute IC50 (CHOP)” value [18] is reported as < 10 µM.
With `COc1ccc(C)cc1NC(=O)CSc1nnc(COc2ccc(Cl)cc2)n1Cc1ccco1` the EC50 [17] was 259 µM (active), the AC50 [29] was 5.42 µM (active) and the IC50 (Coagulation factor XII) was > 50 µM (inactive).
